# Biological target: T1, GLP-1R (Homo sapiens, UniProt P43220)
# T1 construct: host or cells: GLP-1R CRE-bla CHO-K1 cells
# Assay: EC20 GLP-1(9-36) PAM cAMP assay: dose response of compound in the presence of fixed concentration of GLP-1(9-36)
# Assay type: cell-based
# Details: GLP-1R CRE-bla CHO-K1 cells, compound dose response with fixed concentration of GLP-1(9-36), read-out: EC20 GLP-1(9-36) PAM EC50
# Summary of the method: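 GLP-1R CRE-bla CHO-K1 cells treated 30 min at 37 °C with 12-point compound dose response plus fixed EC20 GLP-1(9-36), with IBMX, in HBSS/HEPES/0.1% BSA pH 7.4. Total cAMP measured by luminescent detection against standard curve; EC50 and Emax from non-linear regression.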
# T1 sequence (P43220 24-463): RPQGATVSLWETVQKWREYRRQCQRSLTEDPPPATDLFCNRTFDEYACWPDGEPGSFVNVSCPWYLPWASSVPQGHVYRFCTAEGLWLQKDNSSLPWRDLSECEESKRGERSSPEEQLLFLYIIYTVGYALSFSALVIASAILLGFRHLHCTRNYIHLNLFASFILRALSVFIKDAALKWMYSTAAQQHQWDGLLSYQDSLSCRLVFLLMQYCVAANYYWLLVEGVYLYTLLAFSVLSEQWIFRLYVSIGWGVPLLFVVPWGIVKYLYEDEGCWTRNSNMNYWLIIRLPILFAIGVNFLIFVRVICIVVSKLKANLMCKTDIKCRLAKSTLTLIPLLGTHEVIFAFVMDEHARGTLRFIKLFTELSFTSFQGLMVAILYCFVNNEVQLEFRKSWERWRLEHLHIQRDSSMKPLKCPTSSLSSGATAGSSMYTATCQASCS
# T1 sequence (P01275 100-127 partner limits assumed): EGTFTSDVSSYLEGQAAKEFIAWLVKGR
row,SMILES,EC50 [nM]
1,CCCc1ccc(-c2ccc(-c3cnc(-c4ccc(C[C@H](NC(=O)c5ccc(C(C)(C)C)cc5)C(=O)N5CC(C(=O)O)C5)cc4)nc3)c(F)c2)cc1 [Compound 1399],< 800
2,C[C@@H](NC(=O)[C@H](Cc1ccc(-c2ncc(-c3ccc(C4CCC(C)(C)CC4)cc3)cn2)cc1)NC(=O)c1ccc(C(C)(C)C)s1)C(=O)O [Compound 1316],< 800
3,CCOc1ccc(C2CCN(c3cnc(-c4ccc(CC(NC(=O)c5ccc(C(C)(C)C)s5)C(=O)N5CC(C(=O)O)C5)cc4)nc3)CC2)cc1 (stereo not shown) [Compound 1490],800 to 2500
4,C[C@@H](NC(=O)[C@H](Cc1ccc(-c2ncc(-c3ccc(-c4ccnn4C)cc3)cn2)cc1)NC(=O)c1ccc(C(C)(C)C)s1)C(=O)O [Compound 1297],2500 to 5000
5,CC[C@H]1CC[C@@H](c2ccc(-c3cnc(-c4ccc(C[C@H](NC(=O)c5ccc(C(C)(C)C)s5)C(=O)O)cc4)nc3)c(F)c2)CC1 [Compound 1362],< 800
6,CC(C)CCCOc1ccc(-c2cnc(-c3ccc(C[C@H](NC(=O)c4ccn(C(C)(C)C)c4)C(=O)N4CC(C(=O)O)C4)cc3)nc2)cc1 [Compound 1242],800 to 2500
7,CC(C)(C)c1ccc(C(=O)N[C@@H](Cc2ccc(-c3ncc(-c4ccc(-c5ccc(OC(F)(F)F)cc5)cc4F)cn3)cc2)C(=O)O)s1 [Compound 1365],< 800
8,CC(C)(C)c1ccc(C(=O)N[C@@H](Cc2ccc(-c3ncc(N4CCC(c5ccc(CC#N)cc5)CC4)cn3)cc2)C(=O)N2CC(C(=O)O)C2)s1 [Compound 1500],5000 to 10000
9,CC[C@H]1CC[C@H](c2ccc(-c3cnc(-c4ccc(C[C@H](NC(=O)c5ccc(C(F)(F)F)cc5)C(=O)O)cc4)nc3)cc2)CC1 [Compound 1374],800 to 2500
10,"CCCCCCCOc1ccc(-c2nnc(-c3ccc(CC(NC(=O)c4ccc(C(C)(C)C)cc4)C(=O)O)cc3F)s2)cc1 (stereo in doubt) [Compound 1552, (S)-2-(4-(tert-butyl)benzamido)-3-(3-fluoro-4-(5-(4-(heptyloxy)phenyl)-1,3,4-thiadiazol-2-yl)phenyl)propanoic acid]",800 to 2500
11,CC(C)(C)c1ccc(C(=O)N[C@@H](Cc2ccc(-c3ncc(N4CCC(c5cccc(Cl)c5)CC4)cn3)cc2)C(=O)N2CC(C(=O)O)C2)s1 [Compound 1479],800 to 2500
12,CCC[C@H]1CC[C@H](C2CCN(c3cnc(-c4ccc(C[C@H](NC(=O)c5ccc(C)cc5)C(=O)N5CC(C(=O)O)C5)cc4)nc3)CC2)CC1 [Compound 1528],800 to 2500

# Same assay, conditions: dose response of compound in presence of fixed concentration of GLP-1(9-36), GLP-1R CRE-bla CHO-K1 cells, read-out: EC20 GLP-1(9-36) PAM EC50
row,SMILES,EC50 [nM]
1,C[C@@H](NC(=O)[C@H](Cc1ccc(-c2ncc(-c3ccc4c(C5CCCCO5)c(O)ccc4c3)cn2)cc1)NC(=O)c1ccc(C(C)(C)C)s1)C(=O)O (stereo partly shown) [Compound 1031],2500 to 5000
2,CCCCCCCOc1ccc(-c2cnc(-c3ccc(C[C@H](NC(=O)c4ccc(C(C)(C)C)s4)C(=O)NCCOC)cc3)nc2)cc1 [Compound 386],800 to 2500
3,CC(C)(C)c1ccc(C(=O)N[C@@H](Cc2ccc(-c3ncc(-c4ccc([C@H]5CC[C@@H](C(F)(F)F)CC5)cc4)cn3)cc2)C(=O)N2CC(C(=O)O)C2)s1 [Compound 1185],< 800
4,CCCCCCCOc1ccc(-c2cnc(-c3ccc(C[C@H](NC(=O)c4cnn(C(C)(C)C)c4)C(=O)N4CC(C(=O)O)C4)cc3)nc2)cc1 [Compound 1099],800 to 2500
5,CCCCCCCOc1ccc(-c2cnc(-c3ccc(C[C@H](NC(=O)c4ccc(C(C)(C)C)s4)C(=O)N[C@H](C)C(=O)O)cc3)c(C)c2)cc1 [Compound 812],800 to 2500
6,CCCCCCCOc1ccc(-c2cnc(-c3ccc(C[C@@H](NC(=O)c4ccc(C(C)(C)C)cc4)C(=O)N[C@H](C)C(=O)O)cc3)nc2)cc1 [Compound 437],< 800
7,CCCCCCCOc1ccc(-c2cnc(-c3ccc(C[C@H](NC(=O)c4cnn(C(C)(C)C)c4C)C(=O)N4CC[C@H](C(=O)O)C4)cc3)nc2)cc1 [Compound 861],2500 to 5000
8,CCCCCC(=O)c1ccc(-c2cnc(-c3ccc(C[C@H](NC(=O)c4ccc(C(C)(C)C)s4)C(=O)N[C@H](C)C(=O)O)cc3)nc2)cc1 [Compound 738],< 800
9,"CC[C@H]1CC[C@H](c2ccc(-c3cnc(-c4ccc(C[C@H](NC(=O)c5ccc(C(C)(C)C)s5)C(=O)N[C@H](C)C(=O)O)cc4)nc3)cc2)CC1 [Compound 1056, ((S)-2-(5-(tert-butyl)thiophene-2-carboxamido)-3-(4-(5-(4-((1r,4r)-4-ethylcyclohexyl)phenyl)pyrimidin-2-yl)phenyl)propanoyl)-D-alanine]",< 800
10,CCCCCCCOc1ccc(-c2cnc(-c3ccc(C[C@H](NC(=O)c4ccc(C(C)(C)C)s4)C(=O)NC(Cc4c[nH]c5ncccc45)C(=O)O)cc3)nc2)cc1 (stereo partly shown) [Compound 626],< 800
11,CCCCCCCOc1ccc(-c2cnc(-c3ccc(C[C@H](NC(=O)c4ccc(CC)cn4)C(=O)N4CC[C@H](C(=O)O)C4)cc3)nc2)cc1 [Compound 1098],2500 to 5000
12,CCCCCCOc1ccc(-c2cnc(-c3ccc(C[C@H](NC(=O)c4ccc(C(C)(C)C)s4)C(=O)N4CC[C@H](C(=O)O)C4)cc3)nc2)cc1 [Compound 763],800 to 2500
13,CCCCCCCOc1ccc(-c2cnc(-c3ccc(C[C@H](NC(=O)c4ccc(C(C)(C)C)s4)C(=O)N4CC(C(=O)N(C)C)C4)cc3)nc2)cc1 [Compound 974],2500 to 5000
14,CCCCCCCOc1ccc(-c2cnc(-c3ccc(C[C@H](NC(=O)c4ccc(C(C)(C)C)s4)C(=O)NC4(C(=O)O)CC(F)(F)C4)cc3)nc2)cc1 [Compound 876],800 to 2500
15,CC(C)CCCOc1ccc(-c2cnc(-c3ccc(C[C@H](NC(=O)c4ccc(C(C)(C)C)s4)C(=O)NC(C(=O)O)C(O)c4ccccc4)cc3)nc2)cc1 (stereo partly shown) [Compound 924],2500 to 5000
16,CC(C)(C)c1ccc(C(=O)N[C@@H](Cc2ccc(-c3ncc(-c4ccc(OC5CCCCC5)cc4)cn3)cc2)C(=O)N2CC(C(=O)O)C2)s1 [Compound 921],5000 to 10000
17,CCCCCCCOc1ccc(-c2cnc(-c3ccc(C[C@H](NC(=O)c4ccc(C(C)(C)C)s4)C(=O)N[C@@H](C(=O)O)C4CC4)cc3)nc2)cc1 [Compound 404],< 800
18,CCCCCCCOc1ccc(-c2cnc(-c3ccc(C[C@H](NC(=O)c4ccc(C(C)C)s4)C(=O)N4CC[C@H](C(=O)O)C4)cc3)nc2)cc1 [Compound 845],2500 to 5000
19,CC(C)(C)c1ccc(C(=O)N[C@@H](Cc2ccc(-c3ncc(-c4ccc(-c5cccc(Cl)c5)cc4F)cn3)cc2)C(=O)N2CC(C(=O)O)C2)s1 [Compound 1192],< 800

row,SMILES,EC50 [nM]
1,CCCCCCCOc1ccc(-c2cnc(-c3ccc(C[C@H](NC(=O)c4ccc(CCCC)cc4)C(=O)N4CC(C(=O)O)C4)cc3)nc2)cc1 [Compound 1115],800 to 2500
2,C[C@@H](NC(=O)[C@H](Cc1ccc(-c2ncc(-c3ccc(-c4ccc(C(F)(F)F)cc4)c(F)c3)cn2)cc1)NC(=O)c1ccc(C(C)(C)C)s1)C(=O)O [Compound 1140],< 800
3,CCCCCCCOc1ccc(-c2cnc(-c3ccc(C[C@H](NC(=O)c4ccc(C(C)C)s4)C(=O)N[C@H](C)C(=O)O)cc3)nc2)cc1 [Compound 841],800 to 2500
4,CCCCCCCOc1ccc(-c2cnc(-c3ccc(C[C@H](NC(=O)c4ccc(C(C)(C)C)s4)C(=O)NC(C(=O)O)C(O)c4cccc(Cl)c4)cc3)nc2)cc1 (stereo partly shown) [Compound 902],2500 to 5000
5,CCCCCCCOc1ccc(-c2cnc(-c3ccc(C[C@H](NC(=O)c4ccc(C(C)(C)C)s4)C(=O)NCC(C)O)cc3)nc2)cc1 (stereo partly shown) [Compound 388],2500 to 5000
6,CCCCc1ccc(-c2ccc(-c3cnc(-c4ccc(C[C@H](NC(=O)c5ccc(C(C)(C)C)s5)C(=O)N[C@H](C)C(=O)O)cc4)nc3)cc2)cc1 [Compound 1135],800 to 2500
7,CCCC(C)CCOc1ccc(-c2cnc(-c3ccc(C[C@H](NC(=O)c4ccc(C(C)(C)C)cc4)C(=O)NCCC(=O)O)cc3)nc2)cc1 (stereo partly shown) [Compound 706],800 to 2500
8,CCCCCCCOc1ccc(-c2cnc(-c3ccc(C[C@H](NC(=O)Cc4ccc(OCCCC)cc4)C(=O)N[C@H](C)C(=O)O)cc3)nc2)cc1 [Compound 979],2500 to 5000
9,CCCCCCCCOc1ccc(-c2cnc(-c3ccc(C[C@H](NC(=O)c4ccc(C(C)(C)C)s4)C(=O)N[C@H](C)C(=O)O)cc3)nc2)cc1 [Compound 736],< 800
10,CCCCCCCOc1ccc(-c2cnc(-c3ccc(CC(NC(=O)c4ccc(C(C)(C)C)s4)C(=O)Nc4ccc(C(=O)O)cc4)cc3)nc2)cc1 (stereo not shown) [Compound 442],800 to 2500
11,CC[C@H]1CC[C@H](c2ccc(-c3cnc(-c4ccc(C[C@H](NC(=O)c5ccc(C(C)C)s5)C(=O)N5CC(C(=O)O)C5)cc4)nc3)cc2)CC1 [Compound 1167],< 800
12,CCCCCCCOc1ccc(-c2cnc(-c3ccc(C[C@H](NC(=O)c4ccc(C(C)(C)C)s4)C(=O)N[C@@H](CCCN)C(=O)O)cc3)nc2)cc1 [Compound 393],800 to 2500
13,CCCCCCCOc1ccc(-c2cnc(-c3ccc(C[C@H](NC(=O)c4ccc(C(C)(C)C)s4)C(=O)Nc4ccc(C(F)(F)F)cc4)cc3)nc2)cc1 [Compound 965],5000 to 10000
14,CCCCCCCOc1ccc(-c2cnc(-c3ccc(C[C@H](NC(=O)c4ccc(C(C)(C)C)cc4)C(=O)N[C@@H](CC(=O)N[C@@H](CO)C(=O)O)C(=O)O)cc3)nc2)cc1 [Compound 481],800 to 2500
15,CCCCCCCOc1ccc(-c2cnc(-c3ccc(C[C@@H](NC(=O)c4ccc(C(C)(C)C)cc4)C(=O)NCC(=O)O)cc3)nc2)cc1 [Compound 380],800 to 2500
16,CCCCCCCOc1ccc(-c2cnc(-c3ccc(C[C@H](NC(=O)c4ccc(C(C)(C)CC)cc4)C(=O)N[C@H](C)C(=O)O)cc3)nc2)cc1 [Compound 834],800 to 2500
17,CC(C)(C)c1ccc(C(=O)N[C@@H](Cc2ccc(-c3ncc(-c4ccc(C5CCCC5)cc4)cn3)cc2)C(=O)N2CCC[C@H]2C(=O)O)s1 [Compound 1123],800 to 2500
18,CCCCCCCOc1ccc(-c2cnc(-c3ccc(C[C@H](NC(=O)c4ncc(C(C)C)s4)C(=O)O)cc3)nc2)cc1 [Compound 148],800 to 2500

# Source: US10034886B2, “GLP-1 receptor modulators” (Celgene International II SÀRL, priority 2014, dated 2018)
